According to patent EP2574333B1, “N-acetylcysteine effervescent tablet and its therapeutical applications” (Friulchem SpA, priority 2011, dated 2013):
Where two headings read alike, the source gives them in different places.

Legend:
[1] = cited from earlier work
[2] = chronic toxicity in rats, for 12 months; cited from earlier work
[3] = human, intravenous route; cited from earlier work
[4] = rats, intraperitoneal route; cited from earlier work
Glutathione (GSH) = conditions: cited from earlier work
[5] = mouse, cited from earlier work
[6] = in vivo, iv
[7] = 11,195 cases of suspected acetaminophen overdose reviewed; cited from earlier work
[8] = Chronic toxicity in rats (NOEL); type: in vivo; conditions: oral route, 60 kg

## CC(=O)N[C@@H](CS)C(=O)O [NAC, N-acetylcysteine]
[1]; after oral administration
  plasma half-life: 6.3 h
  time at which maximum plasma concentration is reached: 2 to 3 h
[1]; following oral administration for 4-14 days
  NAC in plasma or bronchoalveolar lavage fluid: cannot be detected
[1]; oral, unchanged molecule
  bioavailability: about 10%
[2]
  no observed effect level (NOEL) dose: about 1000 mg/kg/day
[3]
  Toxic Dose Low (TDLO): 150 to 200 mg/kg
[4]
  Toxic Dose Low (TDLO): 150 to 200 mg/kg
Glutathione (GSH); NAC 600 mg once daily
  cysteine and GSH levels in plasma and lung: increased transiently
Glutathione (GSH); patients with COPD, 600 mg once daily
  plasma concentration of Glutathione (GSH): unchanged
Glutathione (GSH); patients with COPD, 600 mg three times daily
  plasma GSH levels: increased
[5]; intraperitoneal route
  Toxic Dose Low (TDLO): 408 to 450 mg/kg
[5]; oral route
  Toxic Dose Low (TDLO): 300 mg/kg
[6]
  1200 mg dose (20 mg/kg) referred to TDLO in human: about 10 times less
[7]
  effectiveness of 72-hour oral regimen: as effective as the 24-hour regimen
[8]
  1200 mg dose (20 mg/kg) referred to NOEL in rats: 50 times less
